Structures can show the parent of a compound that is named as a salt. Peptide text beside a SMILES is read from it. * marks the point of attachment. Decanoyl = CCCCCCCCCC(=O)*; CH2Cl = ClC*
How the values were obtained:
229E-CoV = experiment: organism not typed; assay type: cell-based; conditions: for IC50: 48 h
MERS-COV = assay type: cell-based
[1] = tested on: WT SARS-COV-2 (USA-WA1/2020); assay type: cell-based
SARS-COV-2 omicron JN.1 = experiment: microbe, parasite or virus in culture; assay type: cell-based; conditions: Severe acute respiratory syndrome coronavirus 2, 48 h; for inhibition at 36 µM: read-out: replication inhibition
SARS-COV-2 = conditions: cited from earlier work
[2] = molecular target: main protease of SARS-COV-2 (Severe acute respiratory syndrome coronavirus 2, UniProt P0DTD1); conditions: cited from earlier work
SARS-COV-2 (WA1/2020) = assay type: cell-based

N#C[C@H](C[C@@H]1CCCNC1=O)NC(=O)[C@H](CC1CC1)NC(=O)c1cc2cccc(Cl)c2[nH]1 [pomotrelvir]
IC50 (229E-CoV): 0.818 to 1.03 µM

CC(C)(C)[C@H](NC(=O)C(F)(F)F)C(=O)N1C[C@H]2[C@@H]([C@H]1C(=O)N[C@H](C#N)C[C@@H]1CCNC1=O)C2(C)C [nirmatrelvir, Nirmatrelvir]
CPE inhibition (MERS-COV): approximately 90% | dose-dependent inhibition of infection [1]: dose-dependent inhibition of infection | inhibition of SARS-COV-2 infection (dose-response curve) [1]: strong inhibition efficacy | inhibition of infection [1]: nearly completely inhibited | IC50 (229E-CoV): 0.818 to 1.03 µM

Cc1c(O)cccc1C(=O)N[C@@H](CSc1ccccc1)[C@H](O)CN1C[C@H]2CCCC[C@H]2C[C@H]1C(=O)NC(C)(C)C [nelfinavir]
dose-dependent inhibition of infection [1]: dose-dependent inhibition of infection | inhibition of SARS-COV-2 infection (dose-response curve) [1]: potent and dose-dependent inhibition of infection | inhibition of infection [1]: did not completely inhibit infection | concentration with increased toxicity (ACE2plusC3 cells; human): ≥ 25 µM

CCN(CC)Cc1cc(Nc2ccnc3cc(Cl)ccc23)ccc1O [amodiaquine]
IC50 (SARS-COV-2 omicron JN.1): 12 to 12.1 µM | inhibition at 36 µM (SARS-COV-2 omicron JN.1): 80 to 95%

CCN(CC)CCCC(C)Nc1ccnc2cc(Cl)ccc12 (stereo not drawn) [chloroquine]
IC50 (SARS-COV-2 omicron JN.1): 12 to 12.1 µM | inhibition at 36 µM (SARS-COV-2 omicron JN.1): 80 to 95%

Cn1cnc(Cn2c(=O)[nH]/c(=N\c3cc4cn(C)nc4cc3Cl)n(Cc3cc(F)c(F)cc3F)c2=O)n1 [ensitrelvir]
inhibitory effect on infected cells (229E-CoV): no inhibitory effect

CN(C)C(=O)COC(=O)Cc1ccc(OC(=O)c2ccc(NC(=N)N)cc2)cc1 [camostat mesylate]
inhibition of SARS-COV-2 infection (dose-response curve) [1]: significantly inhibited | cell toxicity (ACE2plusC3 cells): without causing cell toxicity | SARS-COV-2-driven entry and infection (SARS-COV-2): significantly reduces

O=c1nc(NO)ccn1[C@@H]1O[C@H](CO)[C@@H](O)[C@H]1O [EIDD-1931]
dose-dependent inhibition of infection [1]: dose-dependent inhibition of infection | inhibition of SARS-COV-2 infection (dose-response curve) [1]: strong inhibition efficacy | inhibition of infection [1]: complete inhibition | reduction of infection [1]: at least 50%

CCCCN(CCCC)CCC(O)c1cc2c(Cl)cc(Cl)cc2c2cc(C(F)(F)F)ccc12 (stereo not drawn) [halofantrine]
binding to main protease [2]: effectively binds | IC50 (SARS-COV-2 omicron JN.1): 4 µM | inhibition at 36 µM (SARS-COV-2 omicron JN.1): 80 to 95%

CCCCCCCCCC(=O)N[C@@H](CCCN=C(N)N)C(=O)N[C@H](C(=O)N[C@@H](CCCCN)C(=O)N[C@@H](CCCN=C(N)N)C(=O)CCl)C(C)C [decanoyl-RVKR-CMK] (Decanoyl-RVKR-CH2Cl)
inhibition of infection by immunofluorescence [1]: moderate inhibition of infection | inhibition of infection by plaque assay (viral titer) (SARS-COV-2 (WA1/2020)): moderate inhibition of infection
